The values that follow come from PubChem BioAssay (NCI).

Molecules are shown by their SMILES.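 A five-concentration, 48-hour dose response in 96-well plates underlies each endpoint, interpolated linearly between surrounding concentrations. TGI denotes the concentration required for complete inhibition of growth.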 *1 amine or outer side, *2 acyl side, *3 side chain or, on linkers, in order; H or OH if unused. Where a SMILES comes first, the peptide text is derived from it. Bridges are numbered along the chain shown (N, C = ends). Roman numbers before positions name the chains, in order. [ ]: non-standard residue; d: D form. ξ: configuration not given here. X54 = N=C(N)NCCC[C@@H](NC(=N)CCCCCCC(=N)N[C@H](CCCNC(=N)N)C(=O)[*:2])C(=O)[*:1]; dIgl = N[C@@H](C(=O)O)C1Cc2ccccc2C1; Hyp = O=C(O)[C@@H]1C[C@@H](O)CN1; ξIgl = NC(C(=O)O)C1Cc2ccccc2C1; ξOic = O=C(O)C1CC2CCCCC2N1; ξR = N=C(N)NCCCC(N)C(=O)O; ξP = O=C(O)C1CCCN1; ξS = NC(CO)C(=O)O

Among the test systems are CCRF-CEM leukemia; OVCAR-3 ovarian; SF-539 CNS; NCI-H23 lung; A549 NSCLC; HCT-15 colon; MOLT-4 leukemia; UO-31 renal; COLO 205 colon; EKVX NSCLC; NCI-H226 lung.
Assay in all cases: inhibition of tumour cell growth, NCI panel, 48 h

With `N=C(N)NCCCC(NC(=O)C1CC2CCCCC2N1C(=O)[C@H](NC(=O)C(CO)NC(=O)C(NC(=O)CNC(=O)[C@@H]1C[C@@H](O)CN1C(=O)C1CCCN1C(=O)C(CCCNC(=N)N)NC(=O)[C@@H](CCCNC(=N)N)NC(=N)CCCCCCC(=N)N[C@H](CCCNC(=N)N)C(=O)NC(CCCNC(=N)N)C(=O)N1CCCC1C(=O)N1C[C@H](O)C[C@H]1C(=O)NCC(=O)NC(C(=O)NC(CO)C(=O)N[C@@H](C(=O)N1C(C(=O)NC(CCCNC(=N)N)C(=O)O)CC2CCCCC21)C1Cc2ccccc2C1)C1Cc2ccccc2C1)C1Cc2ccccc2C1)C1Cc2ccccc2C1)C(=O)O` (stereo partly specified) (I: [ξR][ξP][Hyp]G[ξIgl][ξS][dIgl][ξOic][ξR]-OH / II: [ξR][ξP][Hyp]G[ξIgl][ξS][dIgl][ξOic][ξR]-OH; linker I:N-II:N via X54), the TGI in the test with CCRF-CEM leukemia was 8.81 µM; with OVCAR-3 ovarian it was 3.4 µM; in the test on SF-539 CNS it was 5.32 µM; in the test with NCI-H23 lung, 4.17 µM; in the test on A549 NSCLC, greater than 10 µM; with HCT-15 colon it was 4.64 µM. Also, the TGI was 2.89 µM in the test with MOLT-4 leukemia, greater than 10 µM with UO-31 renal, 3.28 µM in the test on COLO 205 colon and 3.67 µM in the test on EKVX NSCLC.
For `O=C(NC(=S)Nc1ccc([N+](=O)[O-])cc1)c1ccc2c(c1)Sc1ccccc1O2`, the TGI in the test with CCRF-CEM leukemia, in the test with OVCAR-3 ovarian, with SF-539 CNS, in the test with NCI-H23 lung, with A549 NSCLC and in the test with HCT-15 colon was greater than 100 µM throughout. Further, the TGI in the test with MOLT-4 leukemia, in the test on UO-31 renal, in the test with COLO 205 colon and with NCI-H226 lung was greater than 100 µM throughout.
On to `Fc1ccc(-c2sc(-c3ccsc3)cc2Cc2ccsc2)cc1`, for which the TGI in the test on CCRF-CEM leukemia, with NCI-H23 lung, in the test on A549 NSCLC, in the test with HCT-15 colon, in the test with MOLT-4 leukemia and with COLO 205 colon was greater than 10 µM each time. In the test with EKVX NSCLC, this compound gave a TGI greater than 10 µM.
Regarding `CC#C[C@]1(O)CCC2[C@@H]3CCC4=CC(=O)CCC4=C3[C@@H](c3ccc(N(C)C)cc3)C[C@@]21C` (stereo partly specified), the TGI in the test with CCRF-CEM leukemia is 37.5 µM; in the test on OVCAR-3 ovarian, 23.5 µM; in the test with SF-539 CNS, 28.5 µM; in the test on NCI-H23 lung, 62.1 µM; in the test on A549 NSCLC, greater than 100 µM; in the test with HCT-15 colon, greater than 100 µM. In addition, the TGI is 28.2 µM in the test on UO-31 renal, 24.1 µM with COLO 205 colon and 53 µM with EKVX NSCLC.
For the compound `Cc1cc2c(c(C(=O)NCC(=O)N[C@@H](C)C(=O)OCc3ccccc3)c1)Oc1c(cc(C)cc1C(=O)NCC(=O)N[C@@H](C)C(=O)OCc1ccccc1)S2`, the TGI with CCRF-CEM leukemia, with OVCAR-3 ovarian, with NCI-H23 lung, with A549 NSCLC, with HCT-15 colon and in the test with MOLT-4 leukemia was greater than 100 µM throughout. Besides, the TGI in the test on UO-31 renal, in the test on COLO 205 colon, in the test with EKVX NSCLC and with NCI-H226 lung was greater than 100 µM in each case.
With `O[C@@H]1C[C@H](Cl)c2c(Cl)sc(Cl)c21`, the TGI in the test with CCRF-CEM leukemia, in the test with OVCAR-3 ovarian, in the test with SF-539 CNS, in the test with NCI-H23 lung, in the test with A549 NSCLC and in the test on HCT-15 colon was greater than 100 µM each time. For the same compound, the TGI in the test with MOLT-4 leukemia, with UO-31 renal, in the test on COLO 205 colon and in the test with EKVX NSCLC was greater than 100 µM in each case.
In the case of `CN(c1ccccc1)S(=O)(=O)c1ccc([N+](=O)[O-])cc1`, the TGI with OVCAR-3 ovarian, in the test on SF-539 CNS, with NCI-H23 lung, with A549 NSCLC, in the test with HCT-15 colon and in the test on UO-31 renal was greater than 100 µM throughout. The TGI with COLO 205 colon, in the test on EKVX NSCLC and in the test with NCI-H226 lung was greater than 100 µM throughout.
In the case of `CC(=O)OCC1OC(N2C(=O)NC(=O)C3C=C4CCCCC4=CC32)CC1OC(C)=O` (stereo unspecified), the TGI with OVCAR-3 ovarian, in the test with SF-539 CNS, with A549 NSCLC, in the test on HCT-15 colon, in the test on MOLT-4 leukemia and in the test on UO-31 renal was greater than 100 µM in each case. The TGI with EKVX NSCLC and in the test on NCI-H226 lung was greater than 100 µM throughout.
For the compound `O=c1cc(-c2ccccc2)[nH]c2ncccc12`, the TGI in the test on CCRF-CEM leukemia, in the test with OVCAR-3 ovarian, in the test with A549 NSCLC, in the test on MOLT-4 leukemia, with UO-31 renal and in the test with EKVX NSCLC was greater than 100 µM in each case.
With `Cc1c(Cc2ccccc2)n(C(C)OCCN(OC(=O)Oc2ccccc2)C(=O)Oc2ccccc2)c(=O)[nH]c1=O` (stereo unspecified), the TGI with CCRF-CEM leukemia was found to be 50 µM; in the test with OVCAR-3 ovarian it was 37.7 µM; in the test on SF-539 CNS it was 37.4 µM; in the test on NCI-H23 lung, 31 µM; in the test on A549 NSCLC, 73.9 µM; in the test on HCT-15 colon, 28.3 µM. Besides, the TGI came to 46.3 µM with MOLT-4 leukemia, 29.3 µM in the test on UO-31 renal, 34.9 µM with COLO 205 colon and 30.4 µM in the test on EKVX NSCLC.
Regarding `CN(C)CN1CSC(=S)N(CN(C)C)C1`, the TGI in the test with CCRF-CEM leukemia was greater than 100 µM; with OVCAR-3 ovarian, greater than 100 µM; in the test with NCI-H23 lung, greater than 100 µM; with A549 NSCLC, greater than 100 µM; in the test on HCT-15 colon, greater than 100 µM; with MOLT-4 leukemia it was 92.4 µM. The TGI with UO-31 renal, in the test with EKVX NSCLC and in the test with NCI-H226 lung was greater than 100 µM throughout.
`COC(=O)c1c(O)ccc2c1c1cc3ccccc3cc1n2Cc1cc(OC)cc(OC)c1`: the TGI in the test with CCRF-CEM leukemia was greater than 100 µM; with OVCAR-3 ovarian, 2.45 µM; in the test on NCI-H23 lung it was greater than 100 µM; with A549 NSCLC, greater than 100 µM; with HCT-15 colon, greater than 100 µM; with MOLT-4 leukemia, greater than 100 µM. Moreover, the TGI in the test with UO-31 renal is greater than 100 µM; in the test on COLO 205 colon it was greater than 36.1 µM; with EKVX NSCLC, greater than 100 µM; in the test on NCI-H226 lung, greater than 100 µM.
In the case of `Cc1ccc(Cc2cc(N3CCN(c4cccc(Cl)c4)CC3)nnc2C)cc1`, the TGI in the test on OVCAR-3 ovarian, in the test with SF-539 CNS, with NCI-H23 lung, in the test on A549 NSCLC, in the test with HCT-15 colon and in the test on UO-31 renal was greater than 100 µM each time. The values for the TGI in the test on COLO 205 colon and with EKVX NSCLC were 73.8 µM and greater than 100 µM, respectively.
